# In patent publication US7671054B1, “Reverse-turn mimetics and method relating thereto” (Choongwae Pharma Corporation, priority 2001, dated 2010):
# Like-named read-outs stand apart in the source and are kept apart here.
# What was measured:
# [1] = system: HCT116 cells; experiment: Growth inhibition assay (MTS); format: cell-based; conditions: Homo sapiens, HCT116 cells, 48 hours treatment, MTS, read-out: Growth Inhibition (GI50, uM) HCT116
# Protocol: (§1) SW480 or HCT116 cells were placed into 96 well microplate (10^4cells/well) and incubated for 24 hours at 37° C. 20 μl of [3-(4,5-dimethylthiazol-2-yl)-5-(3-carboxyphenyl)-2-(4-sulfophenyl)-2H-tetrazolium, inner salt](MTS) solution (Promega) was added into each well and the absorbance after 2 hour incubation at 37° C. (negative control) was read. And then, the cells were treated with TCF4 compound at various concentrations for 48 hours. 20 μl of MTS solution (Promega) was added into each well and incubated for 2 hour at 37° C. Cell viability was measured by reading the absorbance at 490 nm using a microplate reader (Molecular device) and cytotoxicity of a compound at each concentration was calculated.
# as §1, with “a test” for “TCF4”
# [2] = system: SW480 cells; experiment: Growth inhibition assay (MTS); format: cell-based; conditions: Homo sapiens, SW480 cells
# Protocol: as §1
# as §1, with “a test” for “TCF4”
# [3] = SW480, 48 h, Table 5, 48 hours treatment, MTS, read-out: Growth Inhibition (GI50, uM) SW480
SMILES,"GI50 ([1]; HCT-116, 48 h, Table 5) [µM]","GI50 [2, 3] [µM]",further results
[2H]c1cc(C[C@H]2C(=O)N(Cc3cccc4ccccc34)C[C@H]3N2C(=O)CN(C)N3C(=O)NCc2ccccc2)cc([2H])c1O [Compound 136],3 ± 0.9,3.4 ± 0.4,–
C=CCN1CC(=O)N2[C@@H](Cc3ccc(O)cc3)C(=O)N(Cc3cccc4c3OCC4)C[C@@H]2N1C(=O)NCc1ccccc1 [Compound 175],2.5 ± 0.1,3 ± 0.4,–
CN1CC(=O)N2[C@@H](Cc3ccc(O)cc3)C(=O)N(Cc3cccc4c3cnn4C)C[C@@H]2N1C(=O)NCc1ccccc1 [Compound 35],5 ± 0.7,4.7 ± 0.5,–
C#CCn1ncc2ccc(CN3C[C@H]4N(C(=O)CN(C)N4C(=O)NCc4ccccc4)[C@@H](Cc4ccc(O)cc4)C3=O)cc21 [Compound 68],3.8 ± 0.6,3.7 ± 0.2,–
CN1CC(=O)N2[C@@H](Cc3ccc(O)cc3)C(=O)N(Cc3ccccc3N3CCOCC3)C[C@@H]2N1C(=O)NCc1ccccc1 [Compound 72],10.3 ± 1.6,10.9 ± 0.6,–
C=CCN1CC(=O)N2[C@@H](Cc3ccc(NC=O)cc3)C(=O)N(Cc3ccc(F)cc3F)C[C@@H]2N1C(=O)NCc1ccccc1 [Compound 129],3.1 ± 0.3,2.9 ± 0.5,–
CCCN1CC(=O)N2[C@@H](Cc3ccc(O)cc3)C(=O)N(Cc3ccc(F)cc3F)C[C@@H]2N1C(=O)NCc1ccccc1 [Compound 127],4.3 ± 0.7,4.9 ± 0.7,–
CN1CC(=O)N2[C@@H](Cc3ccc(O)cc3)C(=O)N(Cc3cccc(N4CCOCC4)c3)C[C@@H]2N1C(=O)NCc1ccccc1 [Compound 90],14.7 ± 1,12.6 ± 0.9,–
CN1CC(=O)N2[C@@H](Cc3ccc(O)cc3)C(=O)N(Cc3ccc4ncsc4c3)C[C@@H]2N1C(=O)NCc1ccccc1 [Compound 54],4.9 ± 0.7,7.1 ± 0.5,–
CN(C)c1ccccc1CN1C[C@H]2N(C(=O)CN(C)N2C(=O)NCc2ccccc2)[C@@H](Cc2ccc(O)cc2)C1=O [Compound 22],3.26,6.58,–
Cc1cc(C)c(N(C)C)c(CN2C[C@H]3N(C(=O)CN(C)N3C(=O)NCc3ccccc3)[C@@H](Cc3ccc(O)cc3)C2=O)c1 [Compound 28],5.47,3.57,–
CN(c1cccc(CN2C[C@H]3N(C(=O)CN(C)N3C(=O)NCc3ccccc3)[C@@H](Cc3ccc(O)cc3)C2=O)c1)C1CC1 [Compound 36],12.7 ± 1.3,21.9 ± 2.3,–
[2H]c1cc(O)cc([2H])c1C[C@H]1C(=O)N(Cc2cccc3ccccc23)C[C@H]2N1C(=O)CN(C)N2C(=O)NCc1ccccc1 [Compound 142],3.3 ± 0.4,3.2 ± 0.3,–
[2H]C([2H])(c1ccc(O)cc1)[C@H]1C(=O)N(Cc2cccc3ccccc23)C[C@H]2N1C(=O)CN(C)N2C(=O)NCc1ccccc1 [Compound 135],3.1 ± 0.8,3.2 ± 0.4,–
CN1CC(=O)N2[C@@H](Cc3ccc(O)cc3)C(=O)N(Cc3ccccc3C(F)(F)F)C[C@@H]2N1C(=O)NCc1ccccc1 [Compound 7],0.73,1.22,–
C=CCOC(=O)NCCCC[C@H]1C(=O)N(Cc2ccc(Cl)c(Cl)c2)C[C@H]2N1C(=O)CN(C)N2C(=O)NCc1ccccc1 [Compound 141],21 ± 2.6,35 ± 11,–
C[C@H](c1ccc(Cl)c2cccnc12)N1CC2N(C(=O)CN(C)N2C(=O)NCc2ccccc2)[C@@H](Cc2ccc(O)cc2)C1=O (stereo partly drawn) [Compound 168],6.5 ± 0.3,6.2 ± 0.8,–
CCOP(=O)(CC(=O)Nc1ccc(C[C@H]2C(=O)N(Cc3cccc4ccccc34)C[C@H]3N2C(=O)CN(C)N3C(=O)NCc2ccccc2)cc1)OCC [Compound 59],–,–,"GI50 ([1]; HCT-116, Table 5): 55.1 ± 33.7 µM; GI50 ([2]; Table 5, the cell prints nM, read-out: Growth Inhibition (GI50) SW480): > 0.05 µM"
C=CCN1CC(=O)N2[C@@H](Cc3ccc(OP(=O)(O)O)cc3)C(=O)N(Cc3ccc(Cl)c(N(C)C)c3)C[C@@H]2N1C(=O)NCc1ccccc1 [Compound 131],–,–,"GI50 ([1]; HCT-116, Table 5): 1.7 ± 0.5 µM; GI50 ([2]; Table 5, 48 hours treatment, MTS, read-out: Growth Inhibition (GI50, uM) SW480): 2.3 ± 0.1 µM"
CN1CC(=O)N2[C@@H](Cc3ccc(O)cc3)C(=O)N(Cc3cccc4nn(CCN5CCOCC5)cc34)C[C@@H]2N1C(=O)NCc1ccccc1 [Compound 75],4.5 ± 0.4,2 ± 0.1,–
CN1CC(=O)N2[C@@H](Cc3ccc(O)cc3)C(=O)N(Cc3cccc(OCCN4CCOCC4)c3)C[C@@H]2N1C(=O)NCc1ccccc1 [Compound 102],4.9 ± 1.2,2.5 ± 0.4,–
C=CC[C@@H]1CC(=O)N2[C@H](CN(Cc3cccc(OC)c3OC)C(=O)[C@@H]2Cc2ccc(O)cc2)N1C(=O)NCc1ccccc1,–,–,"GI50 ([1]; HCT-116, 48 h, Example 21): 4.91 µM; GI50 ([2]; SW480, 48 h, Example 21, 48 hours treatment, MTS, read-out: Growth Inhibition (GI50, uM) SW480): 4.1 µM"
C#CCN1CC(=O)N2[C@@H](Cc3ccc(O)cc3)C(=O)N(Cc3cccc(N4CCOCC4)c3)C[C@@H]2N1C(=O)NCc1ccccc1 [Compound 91],3.2 ± 0.2,1.5 ± 0.1,–

# Continued, in another order:
"GI50 ([1]; HCT-116, 48 h, Table 5) [µM]","GI50 [2, 3] [µM]",SMILES,further results
1.92,2.36,CN1CC(=O)N2[C@@H](Cc3ccc(O)cc3)C(=O)N(Cc3ccc4ccccc4c3)C[C@@H]2N1C(=O)NCc1ccccc1 [Compound 9],–
1.3 ± 0.1,1.1 ± 0.1,C=CCN1CC(=O)N2[C@@H](Cc3ccc(O)cc3)C(=O)N(Cc3cccc4sc(-c5ccc(O)cc5)nc34)C[C@@H]2N1C(=O)NCc1ccccc1 [Compound 192],–
1.9 ± 0.2,1.7 ± 0.7,C=CCN1CC(=O)N2[C@@H](Cc3ccc(O)cc3)C(=O)N(Cc3ccc4ncsc4c3)C[C@@H]2N1C(=O)NCc1ccccc1 [Compound 114],–
< 0.3,< 0.3,CN1CC(=O)N2[C@@H](Cc3ccc(O)cc3)C(=O)N(Cc3cccc4cccnc34)C[C@@H]2N1C(=O)NCc1ccccc1 [Compound 8],–
1.6 ± 0.1,1.6 ± 0.1,C#CCN1CC(=O)N2[C@@H](Cc3ccc(O)cc3)C(=O)N(Cc3ccc4c(c3)OCCO4)C[C@@H]2N1C(=O)NCc1ccccc1 [Compound 107],–
0.3 ± 0.02,0.6 ± 0.1,C=CCN1CC(=O)N2[C@@H](Cc3ccc(O)cc3)C(=O)N(Cc3cccc4c3N(C)CCO4)C[C@@H]2N1C(=O)NCc1ccccc1 [Compound 117],–
1.3 ± 0.1,18.8 ± 4.8,CN1CC(=O)N2[C@@H](Cc3ccc(O)cc3)C(=O)N(Cc3cccc4c3cnn4Cc3ccccc3N)C[C@@H]2N1C(=O)NCc1ccccc1 [Compound 63],–
1.1 ± 0.1,1.9 ± 0.4,CCN1CC(=O)N2[C@@H](Cc3ccc(O)cc3)C(=O)N(Cc3cccc4cccnc34)C[C@@H]2N1C(=O)NCc1ccccc1 [Compound 93],–
1 ± 0.1,1 ± 0.1,C=CCN1CC(=O)N2[C@@H](Cc3ccc(O)cc3)C(=O)N(Cc3cccc4sc(Cl)nc34)C[C@@H]2N1C(=O)NCc1ccccc1 [Compound 187],–
1 ± 0.03,0.9 ± 0.1,C=CCN1CC(=O)N2[C@@H](Cc3ccc(O)cc3)C(=O)N(Cc3cccc4c3OCCN4C)C[C@@H]2N1C(=O)NCc1ccccc1 [Compound 128],–
1.2 ± 0.1,1 ± 0.1,C=CCN1CC(=O)N2[C@@H](Cc3ccc(O)cc3)C(=O)N(Cc3cccc4sc(N5CCOCC5)nc34)C[C@@H]2N1C(=O)NCc1ccccc1 [Compound 189],–
0.7 ± 0.2,0.7 ± 0.2,C=CCN1CC(=O)N2[C@@H](CN([C@H](C)c3ccccc3)C(=O)[C@@H]2Cc2ccc(O)cc2)N1C(=O)NCc1ccccc1 [Compound 154],–
1.4 ± 0.2,1.3 ± 0.1,C=CCN1CC(=O)N2[C@@H](Cc3ccc(O)cc3)C(=O)N(Cc3ccc(Cl)c(Cl)c3)C[C@@H]2N1C(=O)NCc1ccccc1 [Compound 150],–
0.7 ± 0.1,1 ± 0.05,C=CCN1CC(=O)N2[C@@H](Cc3ccc(O)cc3)C(=O)N(Cc3cccc(N4CCOCC4)c3)C[C@@H]2N1C(=O)NCc1ccccc1 [Compound 99],–
1.17,2.66,C[C@H](c1ccccc1)N1C[C@H]2N(C(=O)CN(C)N2C(=O)NCc2ccccc2)[C@@H](Cc2ccc(O)cc2)C1=O [Compound 19],–
0.7 ± 0.07,1.1 ± 0.3,CCCN1CC(=O)N2[C@@H](Cc3ccc(O)cc3)C(=O)N(Cc3cccc4cccnc34)C[C@@H]2N1C(=O)NCc1ccccc1 [Compound 94],–
1.9 ± 0.1,2.1 ± 0.3,C#CCN1CC(=O)N2[C@@H](Cc3ccc(O)cc3)C(=O)N(Cc3ccc(Cl)c4cccnc34)C[C@@H]2N1C(=O)NCc1ccccc1 [Compound 110],–
2.2 ± 1.2,2.5 ± 0.1,C=CCN1CC(=O)N2[C@@H](Cc3ccc(O)cc3)C(=O)N(Cc3cc(F)c(F)cc3N(C)C)C[C@@H]2N1C(=O)NCc1ccccc1 [Compound 132],–
1.8 ± 0.1,–,C#CCN1CC(=O)N2[C@@H](Cc3ccc(O)cc3)C(=O)N(Cc3cc(F)c(F)cc3N(C)C)C[C@@H]2N1C(=O)NCc1ccccc1 [Compound 81],–
1.7 ± 0.3,–,C=CCN1CC(=O)N2[C@@H](Cc3ccc(O)cc3)C(=O)N(Cc3cccc(N4CCCC4=O)c3)C[C@@H]2N1C(=O)NCc1ccccc1 [Compound 123],–
